Test results as given in publication PMC10706804, “Synthesis and Characterization of a New Class of Chromene-Azo Sulfonamide Hybrids as Promising Anticancer Candidates with the Exploration of Their EGFR, hCAII, and MMP-2 Inhibitors Based on Molecular Docking Assays” (International Journal of Molecular Sciences, 2023).
Where “and” joins values, the source holds several entries; their conditions need not be identical. Equal entries are not always repeated.

Experiments:
MMP-2 = molecular target: T1, MMP-2 (Homo sapiens, UniProt P08253); assay: MMP-2 Inhibitor Screening Assay Kit (colorimetric); conditions: for IC50: IC50 on MMP-2, MMP-2 inhibitor screening kit; for anti-MMP-2 inhibition at the first concentration: first concentration of two-fold serial dilutions
T1 sequence (P08253 110-660): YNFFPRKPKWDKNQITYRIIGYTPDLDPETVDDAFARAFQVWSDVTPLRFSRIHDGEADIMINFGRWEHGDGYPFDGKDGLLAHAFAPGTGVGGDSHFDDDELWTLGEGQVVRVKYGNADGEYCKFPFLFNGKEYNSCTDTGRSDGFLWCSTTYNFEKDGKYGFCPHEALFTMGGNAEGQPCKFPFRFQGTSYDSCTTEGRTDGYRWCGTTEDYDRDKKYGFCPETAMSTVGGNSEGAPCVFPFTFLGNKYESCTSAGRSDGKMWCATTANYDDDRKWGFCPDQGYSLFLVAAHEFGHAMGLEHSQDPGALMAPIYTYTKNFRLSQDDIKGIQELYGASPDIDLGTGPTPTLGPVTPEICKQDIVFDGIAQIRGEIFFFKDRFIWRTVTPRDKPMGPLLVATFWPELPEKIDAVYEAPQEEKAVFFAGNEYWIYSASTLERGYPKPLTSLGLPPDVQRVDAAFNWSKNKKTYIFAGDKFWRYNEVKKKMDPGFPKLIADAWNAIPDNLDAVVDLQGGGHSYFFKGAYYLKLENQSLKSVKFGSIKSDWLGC

[1] = tested on: human liver carcinoma (HepG-2); assay: MTT cytotoxicity, HepG-2; type: cell-based
Source text: (§1) Three human tumorous cell lines—human colon carcinoma (HCT-116), human liver carcinoma (HepG-2), and human breast adenocarcinoma (MCF-7)—were subjected to cytotoxic behavior, employing the MTT analysis. Moreover, a normotoxicity assessment was employed against normal Vero cell line (African Green Monkey Kidney cells) for selected active compounds to determine their therapeutic safety. […] The inhibitory performance of derivatives 1a–e, 2a–e, 7a–g, 8, and 11a–e, and its derived relation to the cell proliferation of these three cancers, are described in Table 1 and Figure 2. […] Characteristically, the inhibitory activity was enhanced via incorporating the azo moieties in compounds 2a–b.
(§2) The cytotoxic activity was appraised using the 3-(4,5-dimethylthiazol-2-yl)-2,5-diphenyl-tetrazolium bromide (MTT) colorimetric assay as reported previously.

[2] = tested on: human breast adenocarcinoma (MCF-7); assay: MTT cytotoxicity, MCF-7; type: cell-based
Source text: as §1, §2

[3] = tested on: human colon carcinoma (HCT-116); assay: MTT cytotoxicity, HCT-116; type: cell-based; conditions: HCT-116 cells
Source text: as §1, §2

EGFR = molecular target: T2, EGFR (Homo sapiens, UniProt P00533); assay: EGFR kinase assay kit inhibition; type: biochemical
T2 construct: purchased BPS Bioscience 40321
Procedure: After ADP is converted into ATP, ATP can be used as the substrate of the luciferase-catalyzed reaction to generate an optical signal, which is positively correlated with kinase activity. […] The plate was incubated at 30 °C for 40 min.

cytosolic hCA II = molecular target: T3, cytosolic hCA II (Bos taurus, UniProt P00921); assay: CA-II inhibition assay (esterase activity, 4-NPA); type: biochemical, bovine; conditions: reduction in esterase activity, 4-NPA substrate; read-out: IC50 against hCA II
T3 construct: purchased Sigma–Aldrich C2624
Procedure: The CA-II inhibition assay for the analyzed molecules was performed based on the measurement of the reduction in esterase activity on the substrate p-nitrophenyl acetate (4-NPA). Briefly, the total mixture volume was 200 µL in a well containing 140 µL (20 mM HEPES) Tris buffer (pH 7.4), 20 µL of the enzyme (from bovine, Sigma–Aldrich, C2624, St. Louis, MO, USA), and 20 µL (0.5 mg/mL in DMSO) of the investigated derivatives, which were mixed and incubated at 25 °C for 15 min. […] The results, attained after the reactions were completed in triplicate, were quantified by the equation given below. The percent inhibition for each sample was calculated as Inhibition (%) = [(C − T)/C] × 100, where C (i.e., control) = total enzyme activity without inhibitor and T (i.e., test sample) = activity in the presence of test compound.

[4] = tested on: normal Vero cell line (Vero CCL-81); assay: Normotoxicity assessment, normal Vero cell line; type: cell-based, African Green Monkey; conditions: Chlorocebus sabaeus; normal Vero CCL-81 cells, cytotoxicity
Source text: as §1, §2

[5] = Homo sapiens, HepG2, HepG-2 cells
[6] = Homo sapiens, MCF7, MCF-7 cells

T3 sequence (P00921 whole entry): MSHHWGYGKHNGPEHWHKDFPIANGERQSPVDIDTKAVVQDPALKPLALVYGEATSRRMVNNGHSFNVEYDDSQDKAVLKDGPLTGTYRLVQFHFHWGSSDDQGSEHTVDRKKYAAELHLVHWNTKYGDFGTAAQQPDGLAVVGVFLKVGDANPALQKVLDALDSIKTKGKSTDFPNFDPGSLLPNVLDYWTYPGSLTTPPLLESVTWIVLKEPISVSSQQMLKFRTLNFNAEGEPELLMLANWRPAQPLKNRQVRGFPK
T2 sequence (P00533 25-1210): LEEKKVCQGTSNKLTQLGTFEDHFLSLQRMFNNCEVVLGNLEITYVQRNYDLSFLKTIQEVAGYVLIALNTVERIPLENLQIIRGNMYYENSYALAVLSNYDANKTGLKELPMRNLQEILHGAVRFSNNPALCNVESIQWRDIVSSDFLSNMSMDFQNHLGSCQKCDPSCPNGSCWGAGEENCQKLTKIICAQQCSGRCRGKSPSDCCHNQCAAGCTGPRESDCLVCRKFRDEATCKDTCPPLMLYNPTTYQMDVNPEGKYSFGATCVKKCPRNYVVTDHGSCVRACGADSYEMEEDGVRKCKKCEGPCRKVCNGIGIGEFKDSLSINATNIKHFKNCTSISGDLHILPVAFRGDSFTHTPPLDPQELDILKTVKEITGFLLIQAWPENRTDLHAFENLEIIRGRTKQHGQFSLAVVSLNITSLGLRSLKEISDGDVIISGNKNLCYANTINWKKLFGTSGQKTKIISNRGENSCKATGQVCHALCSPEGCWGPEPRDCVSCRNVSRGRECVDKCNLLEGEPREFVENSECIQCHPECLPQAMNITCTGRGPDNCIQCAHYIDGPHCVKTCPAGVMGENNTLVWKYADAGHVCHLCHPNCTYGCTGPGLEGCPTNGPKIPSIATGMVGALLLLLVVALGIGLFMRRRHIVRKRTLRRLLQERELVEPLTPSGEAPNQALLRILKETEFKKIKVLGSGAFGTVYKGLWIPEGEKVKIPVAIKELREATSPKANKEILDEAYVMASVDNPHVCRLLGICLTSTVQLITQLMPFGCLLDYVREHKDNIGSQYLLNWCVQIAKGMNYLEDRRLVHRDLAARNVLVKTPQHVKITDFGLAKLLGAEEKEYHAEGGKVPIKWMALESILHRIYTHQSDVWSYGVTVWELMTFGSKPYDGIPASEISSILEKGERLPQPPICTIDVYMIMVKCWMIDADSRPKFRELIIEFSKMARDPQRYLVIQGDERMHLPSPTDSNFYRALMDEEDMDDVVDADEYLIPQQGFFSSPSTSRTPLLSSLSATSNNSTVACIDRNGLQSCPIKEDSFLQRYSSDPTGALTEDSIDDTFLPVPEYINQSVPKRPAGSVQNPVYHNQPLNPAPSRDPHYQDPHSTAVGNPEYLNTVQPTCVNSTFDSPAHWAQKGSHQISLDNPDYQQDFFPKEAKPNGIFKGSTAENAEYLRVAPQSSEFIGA

Compound	IC50 (MMP-2)	IC50 ([1]; HepG-2 cells)	IC50 [1, 5]	IC50 [2, 6]	IC50 ([3]; Homo sapiens)	IC50 ([2]; MCF-7 cells)	IC50 [3]	IC50 (EGFR)	IC50 (cytosolic hCA II)	anti-MMP-2 inhibition at the first concentration (MMP-2)	IC50 (µM) HCT-116 [3]	IC50 [4]
CNC(=O)c1cc(Oc2ccc(NC(=O)Nc3ccc(Cl)c(C(F)(F)F)c3)cc2)ccn1 [Sorafenib, reference compound]	~12.3 µM and 12.3 µM											
CCOC(=O)C1=C(N)Oc2cc(O)c(/N=N/c3ccc(S(N)(=O)=O)cc3)cc2C1c1ccc([N+](=O)[O-])cc1 (centres unmarked) [7d]		34.9 ± 2.79 µM	45.9 µM	97.9 ± 3.08 µM	114 ± 5.34 µM							
N.N.[Cl][Pt][Cl] [Cisplatin, reference compound]		10.9 ± 0.19 µM				14.66 ± 0.03 µM	8.36 ± 0.07 µM					
CCOC(=O)C1=C(N/C(=C(/C#N)C(=O)OCC)c2ccc(C)cc2)Oc2cc(O)c(/N=N/c3ccc(S(=O)(=O)NC(C)=O)cc3)cc2C1c1ccc(C)cc1 (centres unmarked) [11b]			147 ± 6.41 µM	66 ± 3.91 µM	39.3 ± 2.63 µM							
CCOC(=O)C1=C(N)Oc2cc(O)c(/N=N/c3ccc(S(N)(=O)=O)cc3)cc2C1c1ccccc1 (centres unmarked) [7a]	~113 µM and 113 µM		3.92 ± 0.09 µM	13.05 ± 0.12 µM	6.82 ± 0.19 µM			23.4 µM	301 µM	~73.89%		
CCOC(=O)C1=C(N)Oc2cc(O)c(/N=N/c3ccc(S(N)(=O)=O)cc3)cc2C1c1ccc(Cl)cc1Cl (centres unmarked) [7g]		1.63 ± 2.36 µM	1.74 µM	1.72 ± 2.5 µM	1.74 ± 4.06 µM				314 µM		good potency	
CCOC(=O)C1=C(N)Oc2cc(O)c(/N=N/c3ccc(S(N)(=O)=O)cc3)cc2C1c1ccc(OC)cc1 (centres unmarked) [7c]		51.8 ± 1.02 µM	34.9 µM	104 ± 2.65 µM	70.8 ± 1.85 µM							
CCOC(=O)C1=C(N)Oc2cc(O)c(/N=N/c3ccc(S(N)(=O)=O)cc3)cc2C1c1ccc(C)cc1 (centres unmarked) [7b]		45.7 ± 2.88 µM	51.9 µM	29.5 ± 3.29 µM	17.3 ± 4.29 µM				711 µM			
CCOC(=O)C1=C(N/C(=C(/C#N)C(=O)OCC)c2ccc(C)cc2)Oc2cc(O)c(/N=N/c3ccc(S(N)(=O)=O)cc3)cc2C1c1ccc(C)cc1 (centres unmarked) [11a]			32.2 ± 1.79 µM	20.8 ± 1.38 µM	12.2 ± 0.96 µM							139 ± 5.26 µM
COc1cccc2c1C(=O)c1c(O)c3c(c(O)c1C2=O)C[C@@](O)(C(=O)CO)C[C@@H]3O[C@H]1C[C@H](N)[C@H](O)[C@H](C)O1 [Doxorubicin, reference compound]			0.66 ± 0.02 µM	0.64 ± 0.03 µM	0.9 ± 0.07 µM							
CCOC(=O)C1=C(N/C(=C(/C#N)C(=O)OCC)c2ccc(C)cc2)Oc2cc(O)c(/N=N/c3ccc(S(=O)(=O)NC(=N)N)cc3)cc2C1c1ccc(C)cc1 (centres unmarked) [11c]			73.8 ± 2.89 µM	105 ± 5.78 µM	79.5 ± 3.65 µM							328 ± 8.26 µM
CCOC(=O)C1=C(N/C(=C(/C#N)C(=O)OCC)c2ccc(C)cc2)Oc2cc(O)c(/N=N/c3ccc(S(=O)(=O)Nc4cc(C)no4)cc3)cc2C1c1ccc(C)cc1 (centres unmarked) [11e]			17.3 ± 1.06 µM	23.6 ± 2.05 µM	18.4 ± 1.19 µM							162 ± 6.48 µM
CCOC(=O)C1=C(N)Oc2cc(O)c(/N=N/c3ccc(S(N)(=O)=O)cc3)cc2C1c1ccc(Cl)cc1 (centres unmarked) [7f]	~64.8 µM and 64.8 µM	1.74 ± 0.07 µM	1.63 µM	3.93 ± 0.09 µM	3.57 ± 0.11 µM			12.7 µM	164 µM	approximately 80.93%	good potency	
CCOC(=O)C1=C(N/C(=C(/C#N)C(=O)OCC)c2ccc(C)cc2)Oc2cc(O)c(/N=N/c3ccc(S(=O)(=O)Nc4nccs4)cc3)cc2C1c1ccc(C)cc1 (centres unmarked) [11d]			4.71 ± 0.47 µM	9.13 ± 0.93 µM	6.32 ± 0.68 µM				267 µM			278 ± 6.45 µM
CCOC(=O)C1=C(N)Oc2cc(O)c(/N=N/c3ccc(S(N)(=O)=O)cc3)cc2C1c1ccc(F)cc1 (centres unmarked) [7e]			2.92 ± 3.52 µM	6.15 ± 1.23 µM	8 ± 3.45 µM							
